In the supplement of paper PMC8149375:

Columns and labels:
Conditions in all cases: treatment: drug + dasatinib (fixed dose, not stated); 5 days
A498 [1] = assay: GI50 of drug in presence of dasatinib; higher = less potent
Procedure: (§1)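 Primary HTS combination arm: 8 RCC cell lines treated with 8 doses (up to 10 uM) of each library drug plus a fixed dose of dasatinib (dose not stated) for 5 days; viability read by CellTiter-Glo and normalised to DMSO. GI50 was fitted with XLfit, AUC is the area under the dose-response curve, and minimum viability is the lowest fraction of DMSO viability across doses.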

SN12C [2] = assay: as above
Procedure: as §1

786-O [3] = assay: as above
Procedure: as §1

769-P [4] = assay: as above
Procedure: as §1

TK-10 [5] = assay: as above
Procedure: as §1

ACHN [6] = assay: as above
Procedure: as §1

UO-31 [7] = assay: as above
Procedure: as §1

CAKI-1 [8] = assay: as above
Procedure: as §1

A498 [9] = assay: AUC of dose-response viability curve, drug + dasatinib, normalised to DMSO (arbitrary (AUC of normalised viability)); higher = less growth inhibition
Procedure: as §1

SN12C [10] = assay: as above
Procedure: as §1

786-O [11] = assay: as above
Procedure: as §1

769-P [12] = assay: as above
Procedure: as §1

TK-10 [13] = assay: as above
Procedure: as §1

ACHN [14] = assay: as above
Procedure: as §1

UO-31 [15] = assay: as above
Procedure: as §1

CAKI-1 [16] = assay: as above
Procedure: as §1

A498 [17] = assay: minimum viability across doses, drug + dasatinib, relative to DMSO (fraction); higher = less growth inhibition
Procedure: as §1

SN12C [18] = assay: as above
Procedure: as §1

786-O [19] = assay: as above
Procedure: as §1

769-P [20] = assay: as above
Procedure: as §1

TK-10 [21] = assay: as above
Procedure: as §1

ACHN [22] = assay: as above
Procedure: as §1

UO-31 [23] = assay: as above
Procedure: as §1

CAKI-1 [24] = assay: as above
Procedure: as §1

| SMILES | GI50 of drug (A498 [1]) [nM] | GI50 of drug (SN12C [2]) [nM] | GI50 of drug (786-O [3]) [nM] | GI50 of drug (769-P [4]) [nM] | GI50 of drug (TK-10 [5]) [nM] | GI50 of drug (ACHN [6]) [nM] | GI50 of drug (UO-31 [7]) [nM] | GI50 of drug (CAKI-1 [8]) [nM] | AUC of dose-response viability curve (A498 [9]) | AUC of dose-response viability curve (SN12C [10]) | AUC of dose-response viability curve (786-O [11]) | AUC of dose-response viability curve (769-P [12]) | AUC of dose-response viability curve (TK-10 [13]) | AUC of dose-response viability curve (ACHN [14]) | AUC of dose-response viability curve (UO-31 [15]) | AUC of dose-response viability curve (CAKI-1 [16]) | minimum viability across doses (A498 [17]) | minimum viability across doses (SN12C [18]) | minimum viability across doses (786-O [19]) | minimum viability across doses (769-P [20]) | minimum viability across doses (TK-10 [21]) | minimum viability across doses (ACHN [22]) | minimum viability across doses (UO-31 [23]) | minimum viability across doses (CAKI-1 [24]) |
| --- | --- | --- | --- | --- | --- | --- | --- | --- | --- | --- | --- | --- | --- | --- | --- | --- | --- | --- | --- | --- | --- | --- | --- | --- |
| COc1cc(OC)c(/C=C/S(=O)(=O)Cc2ccc(OC)c(NCC(=O)[O][Na])c2)c(OC)c1 + Cc1nc(Nc2ncc(C(=O)Nc3c(C)cccc3Cl)s2)cc(N2CCN(CCO)CC2)n1 [dasatinib] | 78.6 | 163 | 18.1 | 31.6 | 148 | 27.9 | 58.6 | 15.7 | 1.71 | 1.67 | 0.766 | 1.04 | 1.79 | 1.18 | 1.28 | 0.99 | 0.138 | 0.184 | 0.0033 | 0.0648 | 0.292 | 0.088 | 0.00998 | 0.0849 |
| c1ccc2c(-c3cnn4cc(-c5ccc(N6CCNCC6)cc5)cnc34)ccnc2c1 + Cc1nc(Nc2ncc(C(=O)Nc3c(C)cccc3Cl)s2)cc(N2CCN(CCO)CC2)n1 [dasatinib] | 3180 | 1580 | 2090 | 1340 | 3060 | 999 | 3050 | 1790 | 3.1 | 2.19 | 2.41 | 2.03 | 2.51 | 1.77 | 3.73 | 2.19 | 0.00332 | 0.00173 | 0.00229 | 0.00161 | 0.00532 | 0.0011 | 0.00301 | 0.00191 |
| Nc1nc(Nc2ccc(S(N)(=O)=O)cc2)nn1C(=O)c1c(F)cccc1F + Cc1nc(Nc2ncc(C(=O)Nc3c(C)cccc3Cl)s2)cc(N2CCN(CCO)CC2)n1 [dasatinib] | 4680 | 3690 | 343 | 3160 | > 10000 | 334 | 4120 | 1250 | 2.82 | 2.48 | 1.7 | 2.24 | 2.57 | 1.56 | 3.26 | 1.99 | 0.269 | 0.142 | 0.00366 | 0.0371 | 0.623 | 0.00508 | 0.00972 | 0.0394 |
| NCC(=O)Nc1ccc(-n2nc(C(F)(F)F)cc2-c2ccc3c(ccc4ccccc43)c2)cc1 + Cc1nc(Nc2ncc(C(=O)Nc3c(C)cccc3Cl)s2)cc(N2CCN(CCO)CC2)n1 [dasatinib] | 2100 | 4510 | 1060 | 2650 | 2750 | 729 | 2580 | 3650 | 2.71 | 2.31 | 1.94 | 2.22 | 2.41 | 1.81 | 2.72 | 2.5 | 0.0159 | 0.00289 | 0.00632 | 0.0325 | 0.177 | 0.0394 | 0.0147 | 0.00695 |
| C[C@@H]1CN(CC(=O)Nc2ccc3c(c2)Cc2cccc(-c4cc(=O)cc(N5CCOCC5)o4)c2S3)C[C@H](C)O1 + Cc1nc(Nc2ncc(C(=O)Nc3c(C)cccc3Cl)s2)cc(N2CCN(CCO)CC2)n1 [dasatinib] | > 10000 | > 10000 | 3470 | 5520 | > 10000 | 4110 | 6110 | 3790 | 3.33 | 2.48 | 2.51 | 2.37 | 2.69 | 2.04 | 4.18 | 2.15 | 0.771 | 0.511 | 0.282 | 0.373 | 0.589 | 0.381 | 0.213 | 0.165 |
| O=c1cc(N2CCOCC2)oc2c(-c3cccc4c3sc3ccccc34)cccc12 + Cc1nc(Nc2ncc(C(=O)Nc3c(C)cccc3Cl)s2)cc(N2CCN(CCO)CC2)n1 [dasatinib] | 8330 | > 10000 | 763 | 3090 | 4630 | 1800 | 2850 | 847 | 3.4 | 2.38 | 1.89 | 2.36 | 2.52 | 2.09 | 3.36 | 1.96 | 0.442 | 0.401 | 0.0139 | 0.225 | 0.289 | 0.139 | 0.0435 | 0.112 |
| c1ccc2c(CCNc3ccc(Nc4ccncc4)cc3)c[nH]c2c1 + Cc1nc(Nc2ncc(C(=O)Nc3c(C)cccc3Cl)s2)cc(N2CCN(CCO)CC2)n1 [dasatinib] | 748 | 672 | > 10000 | 280 | 531 | 69.5 | 372 | 143 | 2.32 | 1.86 | 1.39 | 1.69 | 1.83 | 1.1 | 2.3 | 1.49 | 0.0451 | 0.00337 | 0.00475 | 0.0334 | 0.00918 | 0.00193 | 0.0188 | 0.0392 |
| O=C(NOC[C@H](O)CO)c1ccc(F)c(F)c1Nc1ccc(I)cc1F + Cc1nc(Nc2ncc(C(=O)Nc3c(C)cccc3Cl)s2)cc(N2CCN(CCO)CC2)n1 [dasatinib] | 259 | 233 | 266 | 74.4 | 335 | 13.5 | 141 | 148 | 1.85 | 1.75 | 1.85 | 1.42 | 1.91 | 1.36 | 1.6 | 1.51 | 0.302 | 0.308 | 0.377 | 0.173 | 0.296 | 0.3 | 0.0632 | 0.0721 |
| O=c1cc(-c2cccc3c2Sc2ccccc2S3)oc(N2CCOCC2)c1 + Cc1nc(Nc2ncc(C(=O)Nc3c(C)cccc3Cl)s2)cc(N2CCN(CCO)CC2)n1 [dasatinib] | > 10000 | > 10000 | > 10000 | > 10000 | > 10000 | 20 | > 10000 | 4310 | 3.16 | 2.48 | 2.43 | 2.38 | 2.57 | 1.86 | 3.22 | 2.12 | 0.747 | 0.659 | 0.561 | 0.635 | 0.682 | 0.449 | 0.7 | 0.31 |
| Cc1cc(Nc2cc(CN3CCOCC3)c3nc(C)c(Cc4ccc(Cl)cc4F)n3n2)[nH]n1 + Cc1nc(Nc2ncc(C(=O)Nc3c(C)cccc3Cl)s2)cc(N2CCN(CCO)CC2)n1 [dasatinib] | 4200 | 1340 | 262 | 1620 | 1950 | 436 | 2610 | 410 | 3.43 | 2.1 | 1.65 | 2.24 | 2.43 | 1.75 | 3.83 | 1.73 | 0.194 | 0.105 | 0.00749 | 0.0393 | 0.0211 | 0.0702 | 0.0199 | 0.00448 |
| CN1CCN(c2ccc([N+](=O)[O-])c3no[n+]([O-])c23)CC1 + Cc1nc(Nc2ncc(C(=O)Nc3c(C)cccc3Cl)s2)cc(N2CCN(CCO)CC2)n1 [dasatinib] | > 10000 | > 10000 | > 10000 | > 10000 | > 10000 | > 10000 | > 10000 | > 10000 | 3.19 | 2.52 | 2.2 | 2.12 | 2.41 | 2.07 | 3.44 | 2.27 | 0.862 | 0.687 | 0.517 | 0.644 | 0.64 | 0.539 | 0.864 | 0.624 |
| CC(C)(C)Cn1c(N)nc2ccc(-c3[nH]c(C(C)(C)C)nc3-c3ccc(F)cc3)nc21.CS(=O)(=O)O.CS(=O)(=O)O + Cc1nc(Nc2ncc(C(=O)Nc3c(C)cccc3Cl)s2)cc(N2CCN(CCO)CC2)n1 [dasatinib] | > 10000 | > 10000 | > 10000 | 1760 | 5500 | 24.9 | > 10000 | 4370 | 3.68 | 2.36 | 2.48 | 2.07 | 2.23 | 1.45 | 3.24 | 2.18 | 0.949 | 0.54 | 0.617 | 0.255 | 0.447 | 0.244 | 0.508 | 0.435 |
| CC(=O)c1c(C)c2cnc(Nc3ccc(N4CCNCC4)cn3)nc2n(C2CCCC2)c1=O.Cl + Cc1nc(Nc2ncc(C(=O)Nc3c(C)cccc3Cl)s2)cc(N2CCN(CCO)CC2)n1 [dasatinib] | > 10000 | 1190 | 174 | 231 | 523 | 19 | 1530 | 179 | 2.92 | 2.1 | 1.87 | 1.8 | 2.06 | 1.32 | 2.58 | 1.71 | 0.566 | 0.368 | 0.174 | 0.0419 | 0.186 | 0.0923 | 0.166 | 0.0887 |
| COc1ccc(-c2ccc3c(N4CCOCC4)nc(N4C[C@@H](C)O[C@@H](C)C4)nc3n2)cc1CO + Cc1nc(Nc2ncc(C(=O)Nc3c(C)cccc3Cl)s2)cc(N2CCN(CCO)CC2)n1 [dasatinib] | 1830 | 482 | 478 | 360 | 379 | 50.7 | 1100 | 250 | 2.77 | 2.03 | 1.93 | 1.75 | 1.87 | 1.33 | 2.56 | 1.56 | 0.252 | 0.196 | 0.176 | 0.136 | 0.168 | 0.0839 | 0.0195 | 0.0643 |
| Cn1cc(-c2ccc3nnc(C(F)(F)c4ccc5ncccc5c4)n3n2)cn1 + Cc1nc(Nc2ncc(C(=O)Nc3c(C)cccc3Cl)s2)cc(N2CCN(CCO)CC2)n1 [dasatinib] | > 10000 | > 10000 | > 10000 | 7400 | > 10000 | > 10000 | > 10000 | > 10000 | 3.2 | 2.34 | 2.54 | 2.32 | 2.6 | 1.87 | 3.52 | 2.24 | 0.854 | 0.614 | 0.566 | 0.469 | 0.646 | 0.499 | 0.923 | 0.592 |
